# Measured values: US12576168B2, “Peptide PET/SPECT probes specific to oncoproteins in tumor extracellular matrix” (CASE WESTERN RESERVE UNIVERSITY, priority 2019, dated 2026)
# Ends that are not written are not given here. * marks the point of attachment. DOTA = O=C(O)CN1CCN(CC(=O)O)CCN(CC(=O)*)CCN(CC(=O)O)CC1; AEEA = NCCOCCOCC(=O)O
# Assays:
# Water solubility = format: physicochemical
# EDB-FN [1] = molecular target: T1, EDB-FN (Homo sapiens, UniProt P02751); assay: ZD2 peptide binding to prostate tissue; design: from tissue; host or cells: High-grade and low-grade prostate tumour and normal tissue
# EDB-FN [2] = molecular target: T1, EDB-FN; assay: ZD2-Cy5.5 fluorescence binding to slides of human pancreatic cancer xenografts; design: incubation of ZD2-Cy5.5 with tumor slides of the above tumor xenografts; from tissue; host or cells: Sections of BXPC3, Capan-1, Panc 10.05 and Panc-1 tumour xenografts from female nude mice; normal pancreas and muscle as controls
# Procedure: A ZD2 peptide (Thr-Val-Arg-The-Ser-Ala-Asp) targeted fluorescence tracer ZD2-Cy5.5 was synthesized according to a reported method to assess the binding of the peptide to EDB-FN in PaCa tumors. The binding specificity of ZD2 peptide to EDB-FN in pancreatic cancer has been tested by incubation of ZD2-Cy5.5 with tumor slides of the above tumor xenografts. […] ZD2 peptide is a promising targeting agent for specific binding of EDB-FN in PaCa tumors.
# EDB-FN [3] = molecular target: T1, EDB-FN; assay: ZD2-Cy5.5 staining of human pancreatic specimens; format: binding; design: incubation of ZD2-Cy5.5 with tumor slides of the above tumor xenografts; from tissue; host or cells: Sections of BXPC3, Capan-1, Panc 10.05 and Panc-1 tumour xenografts from female nude mice; normal pancreas and muscle as controls
# [4] = tested on: LNCaP human prostate cancer xenografts; assay: PET/CT imaging of tracer uptake in LNCaP tumors of tumor-bearing mice; format: in vivo; conditions: 22 h after injection, 7.4 MBq (200 μCi) per mouse i.v., N=4
# Procedure: (§1) The animal study has been approved by the Institutional Animal Care and Use Committee of the Case Western Reserve University (CWRU), […]. PC3 and LNCaP cells were acquired from the American Type Culture Collection (ATCC, Manassas, VA, USA) and cultured in Roswell Park Memorial Institute medium (Thermo Fisher Scientific, Waltham, MA) supplemented with 10% fetal bovine serum, 100 U/mL penicillin, and 0.1 mg/mL streptomycin in a humid incubator maintained at 37° C. and 5% CO2. Male athymic nude mice (4-6 weeks old) were acquired from the Case Comprehensive Cancer Center (Cleveland, OH, USA) and housed in the CWRU Animal Core Facility. Three million cells in high concentration Matrigel (Corning, Tewksbury, MA) were used for tumor inoculation. LNCaP cells were subcutaneously inoculated in the left flank of the mice. Four weeks later, PC3 cells were inoculated on the right flank of the same mice for PET imaging.
# (§2) The radioisotope ^64Cu(II) was acquired from the University of Wisconsin-Madison (Madison, WI). The chelation of ZD2-PEG-DOTA with Cu(II) was first tested with cold CuCl2 in 0.1 N HCl aqueous solution under the same condition as radiolabeling. […] The formation of ZD2-DA-(Cu-DOTA) was verified by MALDI-TOF mass spectrometry (M+1: 1487.8, observed; 1486.04, calculated). […]
# [5] = tested on: PC3 human prostate cancer xenografts; assay: PET/CT imaging of tracer uptake in PC3 tumors of tumor-bearing mice; format: in vivo
# Procedure: as §1, §2
# T1 sequence (P02751 32-2477): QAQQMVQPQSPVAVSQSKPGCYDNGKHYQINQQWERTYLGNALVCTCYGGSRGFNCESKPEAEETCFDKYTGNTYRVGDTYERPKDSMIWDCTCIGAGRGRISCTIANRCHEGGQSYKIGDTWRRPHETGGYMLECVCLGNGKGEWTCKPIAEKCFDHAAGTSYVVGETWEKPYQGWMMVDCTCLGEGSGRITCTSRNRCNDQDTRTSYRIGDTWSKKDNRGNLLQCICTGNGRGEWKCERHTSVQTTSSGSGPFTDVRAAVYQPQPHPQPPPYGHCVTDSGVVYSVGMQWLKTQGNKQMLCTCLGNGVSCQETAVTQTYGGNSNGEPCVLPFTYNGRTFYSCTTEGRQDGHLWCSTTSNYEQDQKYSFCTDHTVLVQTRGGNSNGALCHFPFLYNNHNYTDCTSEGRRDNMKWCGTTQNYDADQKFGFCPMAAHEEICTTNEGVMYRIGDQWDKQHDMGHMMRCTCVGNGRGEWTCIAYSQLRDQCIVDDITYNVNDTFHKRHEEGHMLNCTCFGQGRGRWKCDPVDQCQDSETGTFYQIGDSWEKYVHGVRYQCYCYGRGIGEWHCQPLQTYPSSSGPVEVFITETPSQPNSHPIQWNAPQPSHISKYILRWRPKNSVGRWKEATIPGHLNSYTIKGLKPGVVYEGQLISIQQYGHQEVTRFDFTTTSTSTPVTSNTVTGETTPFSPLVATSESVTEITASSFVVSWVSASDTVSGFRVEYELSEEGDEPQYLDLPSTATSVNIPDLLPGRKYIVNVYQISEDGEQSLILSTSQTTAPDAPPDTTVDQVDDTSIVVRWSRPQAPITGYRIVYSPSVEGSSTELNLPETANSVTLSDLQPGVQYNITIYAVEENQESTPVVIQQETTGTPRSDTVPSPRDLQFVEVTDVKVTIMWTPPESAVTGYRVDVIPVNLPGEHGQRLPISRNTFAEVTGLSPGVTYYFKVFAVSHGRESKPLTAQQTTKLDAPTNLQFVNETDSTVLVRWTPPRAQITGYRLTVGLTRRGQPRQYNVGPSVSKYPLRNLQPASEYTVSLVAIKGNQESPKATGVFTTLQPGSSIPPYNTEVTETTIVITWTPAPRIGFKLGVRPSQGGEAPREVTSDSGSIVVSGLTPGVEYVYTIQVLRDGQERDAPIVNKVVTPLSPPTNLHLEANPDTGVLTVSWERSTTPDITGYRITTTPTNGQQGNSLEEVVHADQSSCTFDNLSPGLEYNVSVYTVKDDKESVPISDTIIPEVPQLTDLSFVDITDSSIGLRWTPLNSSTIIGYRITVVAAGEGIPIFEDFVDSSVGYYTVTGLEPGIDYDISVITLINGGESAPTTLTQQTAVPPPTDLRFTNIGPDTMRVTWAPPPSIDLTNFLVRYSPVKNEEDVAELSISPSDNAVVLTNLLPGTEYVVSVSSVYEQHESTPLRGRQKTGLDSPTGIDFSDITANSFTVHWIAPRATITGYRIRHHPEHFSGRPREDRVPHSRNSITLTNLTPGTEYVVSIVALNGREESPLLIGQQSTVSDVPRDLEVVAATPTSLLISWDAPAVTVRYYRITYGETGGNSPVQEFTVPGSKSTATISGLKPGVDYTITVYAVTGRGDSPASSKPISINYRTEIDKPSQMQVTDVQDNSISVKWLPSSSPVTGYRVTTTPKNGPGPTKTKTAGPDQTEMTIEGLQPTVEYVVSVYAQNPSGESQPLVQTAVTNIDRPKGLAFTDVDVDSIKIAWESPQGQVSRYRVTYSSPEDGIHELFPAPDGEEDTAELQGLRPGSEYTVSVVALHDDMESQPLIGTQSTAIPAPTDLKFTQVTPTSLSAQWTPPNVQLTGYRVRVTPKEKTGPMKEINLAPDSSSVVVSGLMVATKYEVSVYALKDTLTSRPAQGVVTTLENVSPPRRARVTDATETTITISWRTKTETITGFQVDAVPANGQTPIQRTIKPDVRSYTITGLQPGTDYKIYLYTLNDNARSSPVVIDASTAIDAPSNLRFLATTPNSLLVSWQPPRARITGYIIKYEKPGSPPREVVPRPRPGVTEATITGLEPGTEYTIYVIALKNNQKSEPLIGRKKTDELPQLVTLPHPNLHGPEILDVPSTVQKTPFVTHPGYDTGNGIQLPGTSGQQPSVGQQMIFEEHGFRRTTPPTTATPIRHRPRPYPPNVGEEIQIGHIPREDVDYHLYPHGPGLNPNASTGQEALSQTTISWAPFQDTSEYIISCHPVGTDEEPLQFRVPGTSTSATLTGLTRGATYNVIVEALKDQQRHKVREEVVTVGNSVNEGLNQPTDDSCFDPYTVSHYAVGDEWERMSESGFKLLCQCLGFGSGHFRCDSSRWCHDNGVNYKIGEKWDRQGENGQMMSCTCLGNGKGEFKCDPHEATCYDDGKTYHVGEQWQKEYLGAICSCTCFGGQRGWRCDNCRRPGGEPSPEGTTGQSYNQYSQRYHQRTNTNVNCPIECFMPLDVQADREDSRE
substance,measurement,setting,value
"TVRTSAD-OH [ZD2 peptide, Thr-Val-Arg-Thr-Ser-Ala-Asp]",water solubility,Water solubility,highly water-soluble
same,binding in normal tissue,EDB-FN [1],nonbinding
same,binding to low-grade tumor,EDB-FN [1],weak binding affinity
same,binding toward high-grade prostate tumor,EDB-FN [1],strong binding affinity
"ZD2-Cy5.5: ZD2 peptide targeted fluorescence tracer synthesized according to a reported method (TVRTSAD; also: Cy5.5 fluorescence tracer attached, site not given here)",binding to EDB-FN in PaCa after pre-incubation with BC-1 anti-EDB-FN monoclonal antibody,EDB-FN [2]; BC-1/ZD2,blocked
same,binding to normal pancreas and muscle,EDB-FN [2]; tissue slides,No significant binding
same,"binding to BXPC3, Capan-1, Panc 10.05 and Panc-1 tumor tissues",EDB-FN [2]; tumor xenograft slides,strong binding
same,fluorescence staining of precancerous pancreatic intraepithelial neoplasia,EDB-FN [3]; human PanIN,some fluorescence intensity
same,fluorescence staining of normal pancreas,EDB-FN [3]; human normal pancreas,little fluorescence
same,fluorescence staining of human PaCa specimen,EDB-FN [3]; human pancreatic cancer,strong red fluorescence
"ZD2-DA-(^64Cu-DOTA): ZD2 peptide (TVRTSAD) linked via two repeats of 8-amino-3,6-dioxaoctanoic acid to DOTA, complexed with 64Cu ({DOTA-AEEA-AEEA}-TVRTSAD; also: 64Cu chelated by DOTA)",accumulation of PET tracer in LNCaP tumors (ROI),[4],3213±1511 Bq/mL
same,accumulation of PET tracer in PC3 tumors compared to LNCaP tumors,"[5]; 22 h, P<0.05",over two-folds higher
same,accumulation of PET tracer in PC3 tumors (ROI),"[5]; 22 h after injection, 7.4 MBq (200 μCi) per mouse i.v., N=4",7711±1994 Bq/mL
